# In patent US20120213758A1, “BIARYL PDE4 INHIBITORS FOR TREATING PULMONARY AND CARDIOVASCULAR DISORDERS” (DeCODE Genetics enf, priority 2007, published 2012):
# Structures can show the parent of a compound that is named as a salt. Where two headings read alike, the source gives them in different places.
# Key:
# [1] = biological target: hPDE4B (Homo sapiens, UniProt Q07343); experiment: In-vitro real-time enzyme-coupled spectrophotometric assay for PDE4 enzymes (hPDE4B)
# [2] = biological target: hPDE4D (Homo sapiens, UniProt Q08499); experiment: In-vitro real-time enzyme-coupled spectrophotometric assay for PDE4 enzymes (hPDE4D)
# Sequence of hPDE4D (Q08499 whole entry): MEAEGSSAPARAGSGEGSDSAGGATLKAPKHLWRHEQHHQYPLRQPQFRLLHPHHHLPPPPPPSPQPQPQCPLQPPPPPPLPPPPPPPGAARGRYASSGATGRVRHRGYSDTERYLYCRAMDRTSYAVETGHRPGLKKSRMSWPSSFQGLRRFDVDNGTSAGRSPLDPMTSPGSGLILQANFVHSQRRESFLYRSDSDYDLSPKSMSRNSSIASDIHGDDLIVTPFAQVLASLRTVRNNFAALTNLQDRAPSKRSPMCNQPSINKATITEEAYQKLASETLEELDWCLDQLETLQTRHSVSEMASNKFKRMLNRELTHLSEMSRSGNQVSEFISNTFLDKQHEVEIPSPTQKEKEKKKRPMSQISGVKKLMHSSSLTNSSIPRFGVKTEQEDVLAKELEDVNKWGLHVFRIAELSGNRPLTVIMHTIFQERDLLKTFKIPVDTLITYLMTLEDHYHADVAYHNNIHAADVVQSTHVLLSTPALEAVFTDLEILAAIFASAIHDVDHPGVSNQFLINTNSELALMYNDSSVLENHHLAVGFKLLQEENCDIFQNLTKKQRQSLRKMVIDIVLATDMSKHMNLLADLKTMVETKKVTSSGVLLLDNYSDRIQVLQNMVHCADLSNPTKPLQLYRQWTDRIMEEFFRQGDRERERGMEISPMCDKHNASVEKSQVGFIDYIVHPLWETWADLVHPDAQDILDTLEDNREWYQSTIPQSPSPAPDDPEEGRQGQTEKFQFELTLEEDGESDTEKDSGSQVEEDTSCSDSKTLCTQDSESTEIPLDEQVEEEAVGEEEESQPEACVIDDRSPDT
# Sequence of hPDE4B (Q07343 whole entry): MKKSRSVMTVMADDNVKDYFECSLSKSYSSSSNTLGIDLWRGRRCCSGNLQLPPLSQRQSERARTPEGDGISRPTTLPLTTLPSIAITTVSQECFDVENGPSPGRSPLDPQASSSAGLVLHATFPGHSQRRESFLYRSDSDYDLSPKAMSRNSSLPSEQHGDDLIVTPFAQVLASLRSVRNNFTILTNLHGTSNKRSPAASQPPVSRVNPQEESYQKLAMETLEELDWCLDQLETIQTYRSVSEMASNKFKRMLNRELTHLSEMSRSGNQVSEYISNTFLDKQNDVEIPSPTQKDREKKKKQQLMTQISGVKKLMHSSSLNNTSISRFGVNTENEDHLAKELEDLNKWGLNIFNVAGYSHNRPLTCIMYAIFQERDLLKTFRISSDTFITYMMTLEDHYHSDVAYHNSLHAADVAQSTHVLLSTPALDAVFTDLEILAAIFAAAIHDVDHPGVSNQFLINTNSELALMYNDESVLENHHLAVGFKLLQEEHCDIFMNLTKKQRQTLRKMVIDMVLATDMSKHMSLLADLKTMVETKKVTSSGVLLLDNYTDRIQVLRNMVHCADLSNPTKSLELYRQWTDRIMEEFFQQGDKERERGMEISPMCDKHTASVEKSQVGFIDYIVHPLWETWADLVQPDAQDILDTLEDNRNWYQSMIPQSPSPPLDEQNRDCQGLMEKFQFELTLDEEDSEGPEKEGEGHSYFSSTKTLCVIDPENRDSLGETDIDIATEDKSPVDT
Structure (SMILES),IC50 [1] [µM],IC50 [2] [µM],"IC50 ([2]; read-out: hPDE4D activity, enzyme-coupled NADH assay, absorbance at 340 nm) [µM]","IC50 ([1]; read-out: hPDE4B activity, enzyme-coupled NADH assay, absorbance at 340 nm) [µM]"
"COc1ccc(Cc2ccc(N3CCCC(C(=O)O)C3)nc2)c(F)c1-c1cccc(Cl)c1 (stereo not drawn) [Example A-070, 5′-(3′-Chloro-2-fluoro-6-methoxy-biphenyl-3-ylmethyl)-3,4,5,6-tetrahydro-2H-[1,2′]bipyridinyl-3-carboxylic acid]",5 to 20,< 5,,
"COc1ccc(Cc2ccc(N3CCC[C@H]3C(=O)O)nc2)cc1-c1cccc(Cl)c1 [Example A-068, (S)-1-[5-(3′-chloro-6-methoxy-biphenyl-3-ylmethyl)-pyridin-2-yl]-pyrrolidine-2-carboxylic acid]",< 5,< 5,,
"COc1ccc(Cn2cnc(C(=O)O)c2)c(F)c1-c1cccc(Cl)c1 [Example A-059, 1-(3′-Chloro-2-fluoro-6-methoxy-biphenyl-3-ylmethyl)-1H-imidazole-4-carboxylic acid]",5 to 20,< 5,,
CCOC(=O)CCNC(=O)Nc1ccc(Cc2ccc(OC)c(-c3cccc(Cl)c3)c2F)cn1 [Example A-029],,< 5,,
"COc1ccc(Cc2cnc(N3CC(C(=O)O)C3)nc2)c(F)c1-c1cccc(Cl)c1 [Example A-053, 1-[5-(3′-Chloro-2-fluoro-6-methoxy-biphenyl-3-ylmethyl)-pyrimidin-2-yl]-azetidine-3-carboxylic acid]",5 to 20,< 5,,
"COc1ccc(Cc2ccc(NCC(=O)O)nc2)c(F)c1-c1cccc(Cl)c1 [Example A-035, [5-(3′-chloro-2-fluoro-6-methoxy-biphenyl-3-ylmethyl)-pyridin-2-ylamino]-acetic acid]",< 5,< 5,,
"COc1ccc(Cc2cnc(N3CCC3C(=O)O)nc2)c(F)c1-c1cccc(Cl)c1 (stereo not drawn) [Example A-049, 1-[5-(3′-Chloro-2-fluoro-6-methoxy-biphenyl-3-ylmethyl)-pyrimidin-2-yl]-azetidine-2-carboxylic acid]",< 5,< 5,,
"COc1ccc(Cc2ccc(F)cc2)cc1-c1ccc[n+]([O-])c1 [Example B-084, 3-[5-(4-Fluoro-benzyl)-2methoxy-phenyl]-pyridine 1-oxide]",,5 to 20,,
"NC(=O)Nc1ccc(Cc2ccc(OS(=O)(=O)O)c(-c3cccc(Cl)c3)c2)cc1 [Example A-062, Sodium sulfate of [4-(3′-Chloro-6-hydroxy-biphenyl-3-ylmethyl)-phenyl]-urea]",,,< 5,
"COc1ccc(Cc2ccc(N3CC[C@@H]3C(=O)O)nc2)c(F)c1-c1cccc(Cl)c1 [Example A-061, (R)-1-[5-(3′-chloro-2-fluoro-6-methoxy-biphenyl-3-ylmethyl)-pyridin-2-yl]-azetidine-2-carboxylic acid]",5 to 20,< 5,,
"COc1ccc(Cc2ccc3cnc(C(=O)O)n3c2)c(F)c1-c1cccc(Cl)c1 [Example A-051, 6-(3′-Chloro-2-fluoro-6-methoxy-biphenyl-3-ylmethyl)-imidazo[1,5-a]pyridine-3-carboxylic acid hydrochloride]",< 5,< 5,,
COc1ccc(Cc2cnc(NS(N)(=O)=O)nc2)c(F)c1-c1cccc(Cl)c1 [Example A-012],< 5,< 5,,
"COc1ccc(Cc2ccc(F)cc2)[n+]([O-])c1-c1cccc([N+](=O)[O-])c1 [Example B-080, 6-(4-Fluoro-benzyl)-3-methoxy-2-(3-nitro-phenyl)-pyridine 1-oxide]",< 5,< 5,,
"COc1ccc(Cc2nnn[nH]2)c(F)c1-c1cccc(Cl)c1 [Example A-058, 5-(3′-Chloro-2-fluoro-6-methoxy-biphenyl-3-ylmethyl)-1H-tetrazole]",20 to 40,5 to 20,,
"CN(CC(=O)O)c1ccc(Cc2ccc(OC(F)F)c(-c3cccc(Cl)c3)c2)cn1 [Example A-078, {[5-(3′-Chloro-6-difluoromethoxy-biphenyl-3-ylmethyl)-pyridin-2-yl]-methyl-amino}-acetic acid]",,< 5,,
"COc1ccc(Cc2ccc(CN3CCNC3=O)[n+]([O-])c2)c(F)c1-c1cccc(Cl)c1 [Example B-083, 1-[5-(3′-Chloro-2-fluoro-6-methoxy-biphenyl-3-ylmethyl)-1-oxy-pyridin-2-ylmethyl]-imidazolidin-2-one]",< 5,< 5,,
COc1ccc(Cc2ccc(NS(N)(=O)=O)cc2)c(F)c1-c1cccc(Cl)c1 [Example A-008],< 5,< 5,,
"CCNC(=O)Nc1ccc(Cc2ccc(OC)c(-c3cccc(Cl)c3)c2F)c[n+]1O [Example B-081, 1-[5-(3′-Chloro-2-fluoro-6-methoxy-biphenyl-3-ylmethyl)-1-oxy-pyridin-2-yl]-3-ethyl-urea]",< 5,< 5,,
"COC(=O)c1ccc(Cc2ccc(OC)c(-c3cccc(C(C)=O)c3)c2F)cn1 [Example A-020, 5-(3′-Acetyl-2-fluoro-6-methoxy-biphenyl-3-ylmethyl)-pyridine-2-carboxylic acid methyl ester]",< 5,< 5,,

Structure (SMILES),IC50 [1] [µM],IC50 [2] [µM],"IC50 ([2]; read-out: hPDE4D activity, enzyme-coupled NADH assay, absorbance at 340 nm) [µM]","IC50 ([1]; read-out: hPDE4B activity, enzyme-coupled NADH assay, absorbance at 340 nm) [µM]"
"COc1ccc(Cc2ccc(NC(=O)NCC(=O)O)cc2)c(F)c1-c1cccc(Br)c1 [Example A-022, {3-[4-(3′-Bromo-2-fluoro-6-methoxy-biphenyl-3-ylmethyl)-phenyl]-ureido}-acetic acid]",,< 5,,
COc1ccc(Cc2cnc(NC(N)=O)[n+]([O-])c2)c(F)c1-c1cccc(Cl)c1 [Example A-015],< 5,< 5,,
"COc1ccc(Cc2ccc(N3CCC[C@H]3C(=O)O)nc2)c(F)c1-c1cccc(Cl)c1 [Example A-063, (S)-1-[5-(3′-chloro-2-fluoro-6-methoxy-biphenyl-3-ylmethyl)-pyridin-2-yl]-pyrrolidine-2-carboxylic acid]",< 5,< 5,,
"CCOC(=O)C1CCN(C(=O)c2ccc(Cc3ccc(OC)c(-c4cccc(Cl)c4)c3F)cn2)CC1 [Example A-033, 1-[5-(3′-Chloro-2-fluoro-6-methoxy-biphenyl-3-ylmethyl)-pyridine-2-carbonyl]-piperidine-4-carboxylic acid ethyl ester]",,< 5,,
"CCOC(=O)c1cn2cc(Cc3ccc(OC)c(-c4cccc(Cl)c4)c3F)ccc2n1 [Example A-039, 6-(3′-Chloro-2-fluoro-6-methoxy-biphenyl-3-ylmethyl)-imidazo[1,2-a]pyridine-2-carboxylic acid ethyl ester]",,< 5,,
"C[C@H](C(=O)O)N(C)c1ccc(Cc2ccc(OC(F)F)c(-c3cccc(Cl)c3)c2)cn1 [Example A-079, (R)-2-{[5-(3′-Chloro-6-difluoromethoxy-biphenyl-3-ylmethyl)-pyridin-2-yl]-methyl-amino}-propionic acid]",,< 5,,
"COC(=O)[C@H]1C[C@H](O)CN1Cc1ccc(OC)c(-c2cccc([N+](=O)[O-])c2)c1 [Example A-005, (2R,4S)-4-Hydroxy-1-(6-methoxy-3′-nitro-biphenyl-3-ylmethyl)-pyrrolidine-2-carboxylic acid methyl ester]",,20 to 40,,
"COc1ccc(CN2C(=O)c3ccccc3S2(=O)=O)cc1-c1cccc([N+](=O)[O-])c1 [Example A-002, 2-(6-Methoxy-3′-nitro-biphenyl-3-ylmethyl)-1,1-dioxo-1,2-dihydro-1lambda*6*-benzo[d]isothiazol-3-one]",,5 to 20,,
"COc1ccc(Cc2ccc(N3CCC3C(=O)O)nc2)c(F)c1-c1cccc(Cl)c1 (stereo not drawn) [Example A-055, 1-[5-(3′-chloro-2-fluoro-6-methoxy-biphenyl-3-ylmethyl)-pyridin-2-yl]-azetidine-2-carboxylic acid]",,,,< 5
"COC(=O)[C@@H]1CCCN1c1ccc(Cc2ccc(OC)c(-c3cccc(Cl)c3)c2F)cn1 [Example A-069, (S)-1-[5-(3′-chloro-2-fluoro-6-methoxy-biphenyl-3-ylmethyl)-pyridin-2-yl]-pyrrolidine-2-carboxylic acid methyl ester]",,< 5,,
"CCNC(=O)N(CC(=O)O)c1ccc(Cc2ccc(OC)c(-c3cccc(Cl)c3)c2F)cn1 [Example A-056, {1-[5-(3′-chloro-2-fluoro-6-methoxy-biphenyl-3-ylmethyl)-pyridin-2-yl]-3-ethyl-ureido}-acetic acid]",,< 5,,
"COC(=O)C1CCN(c2ncc(Cc3ccc(OC)c(-c4cccc(Cl)c4)c3F)cn2)C1 (stereo not drawn) [Example A-045, 1-[5-(3′-Chloro-2-fluoro-6-methoxy-biphenyl-3-ylmethyl)-pyrimidin-2-yl]-pyrrolidine-3-carboxylic acid methyl ester]",,< 5,,
"COc1ccc(Cc2nnc(NC(=O)NCC(=O)O)s2)c(F)c1-c1cccc(Cl)c1 [Example A-026, {3-[5-(3′-Chloro-2-fluoro-6-methoxy-biphenyl-3-ylmethyl)-[1,3,4]thiadiazol-2-yl]-ureido}-acetic acid]",,< 5,,
"COc1ccc(Cc2ccc(C(=O)O)nc2)cc1-c1cccc(Cl)c1 [Example A-071, 5-(3′-Chloro-6-methoxy-biphenyl-3-ylmethyl)-pyridine-2-carboxylic acid]",,< 5,,
"COc1ccc(Cc2ccc(NC(=O)NCCC(=O)O)cc2)c(F)c1-c1cccc(Br)c1 [Example A-023, 3-{3-[4-(3′-Bromo-2-fluoro-6-methoxy-biphenyl-3-ylmethyl)-phenyl]-ureido}-propionic acid]",,< 5,,
"CCOC(=O)CCNC(=O)Nc1nnc(Cc2ccc(OC)c(-c3cccc(Cl)c3)c2F)s1 [Example A-025, 3-{3-[5-(3′-Chloro-2-fluoro-6-methoxy-biphenyl-3-ylmethyl)-[1,3,4]thiadiazol-2-yl]-ureido}-propionic acid ethyl ester]",,< 5,,
"COc1ccc(Cc2ccc(N(C)CC(=O)O)nc2)cc1-c1cccc(Cl)c1 [Example A-077, {[5-(3′-chloro-6-methoxy-biphenyl-3-ylmethyl)-pyridin-2-yl]-methyl-amino}-acetic acid]",,< 5,,
"CCOC(=O)CNC(=O)Nc1nnc(Cc2ccc(OC)c(-c3cccc(Cl)c3)c2F)s1 [Example A-024, {3-[5-(3′-Chloro-2-fluoro-6-methoxy-biphenyl-3-ylmethyl)-[1,3,4]thiadiazol-2-yl]-ureido}-acetic acid ethyl ester]",,< 5,,
